Usually EC50 stands for the concentration at which the effect is half-maximal.

Experimental findings from patent publication US8394969B2, “Cyclic benzimidazole derivatives useful as anti-diabetic agents” (Merck Sharp & Dohme Corp., priority 2008, dated 2013) are described below.

Structures are written as SMILES. Counter-ions that a name gives are not always drawn. Like-named read-outs stand apart in the source and are kept apart here.

The target of the test is recombinant human AMPK complex 1 (containing α1β1γ1) (Homo sapiens, UniProt Q13131+Q9Y478). The test can be described thus: […] (in vitro AMPK activation assay). Format: biochemical. The note with it: for Emax: basal activity subtracted; for EC50: read-out: EC50.
The mark [1] stands for this setting: recombinant human AMPK complex 1 (α1β1γ1), read-out: % Maximum AMP Activation of human AMPK Complex 1.
Where [2] appears, read: recombinant human AMPK complex 1 (α1β1γ1).
[3] abbreviates: read-out: % Maximum AMP Activation of human AMPK Complex 1, recombinant human AMPK complex 1 (α1β1γ1).

Sequence of recombinant human AMPK complex 1 (containing α1β1γ1) (Q13131 whole entry): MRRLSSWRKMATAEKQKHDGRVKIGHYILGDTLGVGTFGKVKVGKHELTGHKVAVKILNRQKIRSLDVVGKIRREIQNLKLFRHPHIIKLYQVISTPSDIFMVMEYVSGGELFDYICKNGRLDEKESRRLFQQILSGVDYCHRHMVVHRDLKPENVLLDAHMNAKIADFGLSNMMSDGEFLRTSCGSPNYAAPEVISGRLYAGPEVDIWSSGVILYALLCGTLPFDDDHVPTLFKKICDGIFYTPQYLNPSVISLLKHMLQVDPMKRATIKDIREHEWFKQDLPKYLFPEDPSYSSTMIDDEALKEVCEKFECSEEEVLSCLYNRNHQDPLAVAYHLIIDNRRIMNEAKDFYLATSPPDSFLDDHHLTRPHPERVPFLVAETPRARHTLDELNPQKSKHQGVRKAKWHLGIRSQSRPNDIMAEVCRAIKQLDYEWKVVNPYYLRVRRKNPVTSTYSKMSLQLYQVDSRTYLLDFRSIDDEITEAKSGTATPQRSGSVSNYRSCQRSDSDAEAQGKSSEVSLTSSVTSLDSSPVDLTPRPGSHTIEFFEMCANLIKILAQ
Sequence of recombinant human AMPK complex 1 (containing α1β1γ1) (Q9Y478 whole entry): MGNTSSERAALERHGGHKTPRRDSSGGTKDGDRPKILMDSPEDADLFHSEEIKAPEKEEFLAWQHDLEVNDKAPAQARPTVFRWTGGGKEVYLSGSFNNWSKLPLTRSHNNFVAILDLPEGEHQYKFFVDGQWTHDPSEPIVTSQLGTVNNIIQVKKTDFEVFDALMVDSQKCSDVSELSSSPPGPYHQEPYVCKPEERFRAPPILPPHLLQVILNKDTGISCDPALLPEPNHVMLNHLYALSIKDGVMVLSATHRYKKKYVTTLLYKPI
Sequence of recombinant human AMPK complex 1 (containing α1β1γ1) (P54619 whole entry partner): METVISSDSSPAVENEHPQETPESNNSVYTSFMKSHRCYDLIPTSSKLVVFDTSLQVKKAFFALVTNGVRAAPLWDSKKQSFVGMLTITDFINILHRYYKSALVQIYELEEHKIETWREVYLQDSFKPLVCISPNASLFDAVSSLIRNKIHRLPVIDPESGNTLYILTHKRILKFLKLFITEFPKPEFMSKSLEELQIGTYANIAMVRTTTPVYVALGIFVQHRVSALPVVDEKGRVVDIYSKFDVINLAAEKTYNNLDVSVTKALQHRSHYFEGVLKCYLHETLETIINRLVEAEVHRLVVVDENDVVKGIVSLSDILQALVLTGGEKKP

Consider `Cc1ccc(Oc2nc3cc(-c4ccc5c(c4)CCN5CCO)c(Cl)cc3[nH]2)cc1C(=O)O` [Example 319, 5-({6-chloro-5-[1-(2-hydroxyethyl)-2,3-dihydro-1H-indol-5-yl]-1 H-benzimidazol-2-yl}oxy)-2-methylbenzoic acid], for which the Emax under setting [1] was > 80%.
Take `Cc1ccc(Oc2nc3cc(-c4cccc5c4CCN5C(C)C)c(Cl)cc3[nH]2)cc1C(=O)O` [Example 324, 5-{[6-chloro-5-(1-isopropyl-2,3-dihydro-1H-indol-4-yl)-1H-benzimidazol-2-yl]oxy}-2-methylbenzoic acid]: the Emax under setting [1] was > 80%.
Turning to `Cc1ccc(Oc2nc3cc(-c4cc5ccn(CCO)c5cc4F)c(Cl)cc3[nH]2)cc1C(=O)O` [Example 325, 5-({6-chloro-5-[6-fluoro-1-(2-hydroxyethyl)-1H-indol-5-yl]-1H-benzimidazol-2-yl}oxy)-2-methylbenzoic acid], the 50% effective concentration (EC50) under setting [2] turned out to be 5 nM.
The same measure, in the same setting: next, `COc1ccc(-c2cc3nc(Oc4ccc(C)c(C(=O)O)c4)[nH]c3cc2Cl)c(F)c1` [Example 326, 5-{[6-chloro-5-(2-fluoro-4-methoxyphenyl)-1H-benzimidazol-2-yl]oxy}-2-methylbenzoic acid]: 10 nM.
Regarding `Cc1cc(-c2cc3nc(Oc4ccc(C)c(C(=O)O)c4)[nH]c3cc2Cl)ccc1F` [Example 328, Ammonium 5-{[6-chloro-5-(4-fluoro-3-methylphenyl-1H-benzimidazol-2-yl]oxy}-2-methylbenzoate], under setting [3], the Emax is > 80%.
With `Cc1ccc(Oc2nc3cc(-c4ccccc4C(C)C)c(Cl)cc3[nH]2)cc1C(=O)O` [Example 329, Ammonium 5-{[6-chloro-5-(2-isopropylphenyl)-1H-benzimidazol-2-yl]oxy}-2-methylbenzoate], the Emax under setting [3] was > 80%.
For `Cc1ccc(Oc2nc3cc(-c4ccc(CO)cc4)c(Cl)cc3[nH]2)cc1C(=O)O` [Example 330, 2-(3-carboxy-4-methylphenoxy)-6-chloro-5-[4-(hydroxymethyl)phenyl]-1H-3,1-benzimidazol-3-ium trifluoroacetate], under setting [1], the Emax was > 80%.
As to `Cc1ccc(Oc2nc3cc(-c4ccc([S+](C)[O-])cc4)c(Cl)cc3[nH]2)cc1C(=O)O` (stereo not shown) [Example 331, 2-(3-carboxy-4-methylphenoxy)-6-chloro-5-[4-(methylsulfinyl)phenyl]-1H-3,1-benzimidazol-3-ium formate], the Emax under setting [1] is > 80%.
On the same count and under the same terms, for `Cc1ccc(Oc2nc3cc(-c4cccc(CO)n4)c(Cl)cc3[nH]2)cc1C(=O)O` [Example 332, 2-(3-carboxy-4-methylphenoxy)-6-chloro-5-[6-(hydroxymethyl)pyridin-2-yl]-1H-3,1-benzimidazol-3-ium formate] the value was > 80%; for `Cc1ccc(Oc2nc3cc(-c4cccc5ncccc45)c(Cl)cc3[nH]2)cc1C(=O)O` [Example 333, 2-(3-carboxy-4-methylphenoxy)-6-chloro-5-quinolin-5-yl-1H-3,1-benzimidazol-3-ium formate], > 80%; for `COc1cccc(-c2cc3nc(Oc4ccc(C)c(C(=O)O)c4)[nH]c3cc2Cl)n1` [Example 334, 2-(3-carboxy-4-methylphenoxy)-6-chloro-5-(6-methoxypyridin-2-yl)-1H-3,1-benzimidazol-3-ium formate], > 80%.
Take `Cc1ccnc(-c2cc3nc(Oc4ccc(C)c(C(=O)O)c4)[nH]c3cc2Cl)c1` [Example 335, 2-(3-carboxy-4-methylphenoxy)-6-chloro-5-(4-methylpyridin-2-yl)-1H-3,1-benzimidazol-3-ium formate]: the Emax under setting [1] is > 80%.
As to `Cc1ccc(Oc2nc3cc(-c4cncc5ccccc45)c(Cl)cc3[nH]2)cc1C(=O)O` [Example 336, 2-(3-carboxy-4-methylphenoxy)-6-chloro-5-isoquinolin-4-yl-1H-3,1-benzimidazol-3-ium formate], under setting [1], the Emax is > 80%.
Turning to `Cc1ccc(Oc2nc3cc(-c4ccc(C(F)(F)F)cc4)c(Cl)cc3[nH]2)cc1C(=O)O` [Example 337, Ammonium 5-({6-chloro-5-[4-(trifluoromethyl)phen-yl]-1H-benzimidazol-2-yl}oxy)-2-methylbenzoate], the Emax under setting [3] was > 80%.
Consider `COc1cccc(-c2cc3nc(Oc4ccc(C)c(C(=O)O)c4)[nH]c3cc2Cl)c1` [Example 338, Ammonium 5-{[6-chloro-5-(3-methoxyphenyl)-1H-benzimidazol-2-yl]oxy}-2-methylbenzoate], for which the Emax under setting [3] was > 80%.
As for `Cc1ccc(Oc2nc3cc(-c4cccc(C(C)C)c4)c(Cl)cc3[nH]2)cc1C(=O)O` [Example 339, Ammonium 5-{[6-chloro-5-(3-isopropylphenyl)-1H-benzimidazol-2-yl]oxy}-2-methylbenzoate], the Emax under setting [3] is > 80%.
Still for that read-out and setting: for `Cc1ccc(-c2cc3nc(Oc4ccc(C)c(C(=O)O)c4)[nH]c3cc2Cl)cc1C` [Example 340, Ammonium 5-{[6-chloro-5-(3,4-dimethylphenyl)-1H-benzimidazol-2-yl]oxy}-2-methylbenzoate] the value was > 80%.
In the case of `COc1ccc(-c2cc3nc(Oc4ccc(C)c(C(=O)O)c4)[nH]c3cc2Cl)c(F)c1.N` [Example 342, Ammonium 5-{[6-chloro-5-(2-fluoro-4-methoxyphenyl)-1H-benzimidazol-2-yl]oxy}-2-methylbenzoate], the “% Maximum AMP Activation of human AMPK Complex 1” value was “greater than 80%”.
For the molecule `CSc1ccc(-c2cc3nc(Oc4ccc(C)c(C(=O)O)c4)[nH]c3cc2Cl)cc1` [Example 343, Ammonium 5-({6-chloro-5-[4-(methylthio)phenyl]-1H-benzimidazol-2-yl}oxy)-2-methylbenzoate], the Emax under setting [3] was > 80%.
On to `CCCCc1ccc(-c2cc3nc(Oc4ccc(C)c(C(=O)O)c4)[nH]c3cc2Cl)cc1` [Example 344, Ammonium 5-{[5-(4-butylphenyl)-6-chloro-1H-benzimidazol-2-yl]oxy}-2-methylbenzoate], for which, under setting [3], the Emax is > 80%.
The same measure, in the same setting: next, `COc1ccc(-c2cc3nc(Oc4ccc(C)c(C(=O)O)c4)[nH]c3cc2Cl)cc1` [Example 345, Ammonium 5-{[6-chloro-5-(4-methoxyphenyl)-1H-benzimidazol-2-yl]oxy}-2-methylbenzoate]: > 80%; `Cc1ccc(Oc2nc3cc(-c4cccc(N(C)C)c4)c(Cl)cc3[nH]2)cc1C(=O)O` [Example 346, Ammonium 5-({6-chloro-5-[3-(dimethylamino)phen-yl]-1H-benzimidazol-2-yl}oxy)-2-methylbenzoate]: > 80%.
`CCCc1ccc(-c2cc3nc(Oc4ccc(C)c(C(=O)O)c4)[nH]c3cc2Cl)cc1` [Example 347, 2-(3-carboxy-4-methylphenoxy)-6-chloro-5-(4-propylphenyl)-1H-3,1-benzimidazol-3-ium trifluoroacetate]: under setting [1], the Emax is > 80%.
On to `CCCc1ccc(-c2cc3nc(Oc4ccc(C)c(C(=O)O)c4)[nH]c3cc2Cl)cc1.N` [Example 348, Ammonium 5-{[6-chloro-5-(4-propylphenyl)-1H-benzimidazol-2-yl]oxy}-2-methylbenzoate], for which the “% Maximum AMP Activation of human AMPK Complex 1” value is “greater than 80%”.
For `Cc1ccc(Oc2nc3cc(-c4ccc5c(c4)c(C#N)cn5C)c(Cl)cc3[nH]2)cc1C(=O)O` [Example 349, 2-(3-carboxy-4-methylphenoxy)-6-chloro-5-(3-cyano-1-methyl-1H-indol-5-yl)-1H-3,1-benzimidazol-3-ium trifluoroacetate], the Emax under setting [1] was > 80%.
On to `Cc1ccc(Oc2nc3cc(-c4ccc(N5CCCC5=O)cc4)c(Cl)cc3[nH]2)cc1C(=O)O` [Example 350, 2-(3-carboxy-4-methylphenoxy)-6-chloro-5-[4-(2-oxopyrrolidin-1-yl)phenyl]-1H-3,1-benzimidazol-3-ium trifluoroacetate], for which the Emax under setting [1] is > 80%.
Take `Cc1ccc(Oc2nc3cc(-c4ccc5c(ccn5CC(F)(F)F)c4)c(Cl)cc3[nH]2)cc1C(=O)O` [Example 351, 5-{6-Chloro-5-[1-(2,2,2-trifluoro-ethyl)-1H-indol-5-yl]-1H-benzoimidazol-2-yloxy}-2-methyl-benzoic acid]: the Emax under setting [1] was > 80%.
With `Cc1ccc(Oc2nc3cc(-c4ccc(C(C)C)cc4)c(Cl)cc3[nH]2)cc1C(=O)O` [Example 352, 5-[6-Chloro-5-(4-isopropyl-phenyl)-1H-benzoimidazol-2-yloxy]-2-methyl-benzoic acid], under setting [1], the Emax is > 80%.
As to `Cc1ccc(Oc2nc3cc(-c4ccc5c(c4)c(CN(C)C)cn5C)c(Cl)cc3[nH]2)cc1C(=O)O` [Example 353, 5-[6-Chloro-5-(3-dimethylaminomethyl-1-methyl-1H-indol-5-yl)-1H-benzoimidazol-2-yloxy]-2-methyl-benzoic acid], under setting [1], the Emax is > 80%.
`Cc1ccc(Oc2nc3cc(-c4nc5ccccc5s4)c(Cl)cc3[nH]2)cc1C(=O)O` [Example 354, 5-(5-Benzothiazol-2-yl-6-chloro-1H-benzoimidazol-2-yloxy)-2-methyl-benzoic acid]: under setting [1], the Emax was > 80%.
`Cc1ccc(Oc2nc3cc(-c4cc5ccccc5s4)c(Cl)cc3[nH]2)cc1C(=O)O` [Example 355, 5-(5-Benzo[b]thiophen-2-yl-6-chloro-1H-benzoimidazol-2-yloxy)-2-methyl-benzoic acid]: the Emax under setting [1] is > 80%.
As to `Cc1ccc(Oc2nc3cc(-c4cc5ccccc5o4)c(Cl)cc3[nH]2)cc1C(=O)O` [Example 356, 5-(5-Benzofuran-2-yl-6-chloro-1H-benzoimidazol-2-yloxy)-2-methyl-benzoic acid], the Emax under setting [1] is > 80%.
Regarding `Cc1ccc(Oc2nc3cc(-c4ccc(C5CCCCC5)cc4)c(Cl)cc3[nH]2)cc1C(=O)O` [Example 357, 5-[6-Chloro-5-(4-cyclohexyl-phenyl)-1H-benzoimidazol-2-yloxy]-2-methyl-benzoic acid], the Emax under setting [1] is > 80%.
Regarding `Cc1ccc(Oc2nc3cc(-c4ccc5c(c4)C(C)(C)CCC5(C)C)c(Cl)cc3[nH]2)cc1C(=O)O` [Example 358, 5-[6-Chloro-5-(5,5,8,8-tetramethyl-5,6,7,8-tetrahydro-naphthalen-2-yl)-1H-benzoimidazol-2-yloxy]-2-methyl-benzoic acid], the Emax under setting [1] was > 80%.
